Columns and labels:
Type in all cases: cell-based, Pseudomonas aeruginosa
[1] = tested on: P. aeruginosa strain PAR 20 biofilm; assay: Mature biofilm model, Congo red staining; settings: for absorbance (Congo red, biofilm development): mature biofilm, compound added 48 h after induction of biofilm
Method: (§1) Biofilm quantity was determined using Congo red dye according to a modified procedure described by Allison et al. (Allison G C, Sutherland I W. A staining technique for bacteria and its correlation to extracellular carbohydrate production. J Microbiol Meth 2, 93-99 (1984)).
(§2) Briefly, at different time points (0, 6, 18, 24, 48 and 72 hours), the culture medium was gently removed from wells by using the pipette and immediately 200 μl of 0.1% Congo red solution was added. The plates were left for 30 minutes at room temperature and then 10 minutes before the end of staining, the plate was centrifuged for 10 minutes at 2000 rpm and then washed twice with buffered saline to remove unbound dye. Absorbance was measured at λ=492 nm wavelength using spectrophotometer (Awarness Technology Inc., Palm City, Fla., USA). All measurements were performed in triplicates and mean values±SD are given.
(§3) Mature biofilm model: the tested substances were added 48 hours after adherence of bacteria to the wells in a 96-well plate. The growth conditions of P. aeruginosa were exactly the same, as described above for the early biofilm model.
(§4) After the addition of iminosugars (compounds 1, 2, 3 and 4), the biofilm formation and the number of viable bacteria were checked in the following time intervals: 48, 48.5, 56, 72, 96 hours.

[2] = tested on: P. aeruginosa strain PAR 5 biofilm; assay: Mature biofilm model, Congo red staining; settings: for absorbance (Congo red, biofilm development): mature biofilm, compound added 48 h after induction of biofilm
Method: as §1, §2, §3, §4

[3] = tested on: P. aeruginosa strain PAR 50 biofilm; assay: Mature biofilm model, Congo red staining; settings: for absorbance (Congo red, biofilm development): mature biofilm, compound added 48 h after induction of biofilm
Method: as §1, §2, §3, §4

[4] = tested on: P. aeruginosa strain PAR 5 biofilm; assay: Reduction of biofilm growth (percent vs culture control)
From the text: FIG. 4A represents the effect of the tested compounds (1, 2, 3 and 4) on exopolysaccharide biosynthesis in the early stages and mature P. aeruginosa biofilm formation, strain PAR 5. The abscissa represents the time (in hours) in order to differentiate early biofilm and mature biofilm, and the ordinate represents the percentage of the biofilm reduction.
(§5) Early biofilm model: formation of early biofilm under influence of the tested substances was observed by filling wells of a 96-well plate with 20 μl of P. aeruginosa suspension and 180 μl of TSB, as described above. Tested iminosugars (compounds 1, 2, 3 and 4) were added immediately after setting-up the bacteria at a final concentration of 0.9 mM. Then, the plate was gently mixed and incubated for 48 hours at 37° C.
as §3
(§6) The effect of the tested compounds (1, 2, 3 and 4) on the reduction of biofilm growth has also been studied on the three P. aeruginosa strains PAR 5, PAR 20, PAR 50.
(§7) (Percent decrease in biofilm thickness was obtained as a mean value from 3 consecutive measurements of the Congo Red stained biofilm using spectrophotometer after addition of the tested iminosugars in comparison to control regarded as 100%).

[5] = tested on: P. aeruginosa strain PAR 20 biofilm; assay: as above
From the text: FIG. 4B represents the effect of the tested compounds (1, 2, 3 and 4) on exopolysaccharide biosynthesis in the early stages and mature P. aeruginosa biofilm formation, strain PAR 20. The abscissa represents the time (in hours) in order to differentiate early biofilm and mature biofilm, and the ordinate represents the percentage of the biofilm reduction.
as §5, §3, §6, §7

[6] = tested on: P. aeruginosa strain PAR 50 biofilm; assay: as above
From the text: FIG. 4C represents the effect of the tested compounds (1, 2, 3 and 4) on exopolysaccharide biosynthesis in the early stages and mature P. aeruginosa biofilm formation, strain PAR 50. The abscissa represents the time (in hours) in order to differentiate early biofilm and mature biofilm, and the ordinate represents the percentage of the biofilm reduction.
as §5, §3, §6, §7

[7] = tested on: P. aeruginosa strain PAR 20 biofilm; assay: Early biofilm model, Congo red staining; settings: for absorbance (Congo red, biofilm formation): early biofilm, 0.9 mM, 492 nm
Method: (§8) P. aeruginosa biofilm was set-up in sterile plastic 96-well plates with adherent surface (Greiner Bio-One, USA).
(§9) Twenty microliter quantities of the bacterial stock suspensions, prepared as described above, were added to each well followed with 180 μl of sterile TSB. Final concentration of the bacteria was 1×10^8 CFU/ml.
(§10) The plates were centrifuged for 10 minutes at 2000 rpm to sediment bacteria on the bottom of each well and then incubated for 72 hours (37° C., aerobic conditions).
as §1, §2, §5
(§11) Biofilm formation and the number of viable bacteria were checked in parallel in the following time intervals: 0, 0.5, 8, 24, 48 hours, in accordance with the procedure described above. Biofilm thickness was estimated by staining it with Cango Red and measuring optical density while number of viable bacteria was performed using the standard viable count method. (Allison G C, Sutherland I W. A staining technique for bacteria and its correlation to extracellular carbohydrate production. J Microbiol Meth 2, 93-99 (1984)).
(§12) P. aeruginosa suspension cultures in TSB broth alone were used as a control.

[8] = tested on: P. aeruginosa strain PAR 5 biofilm; assay: Early biofilm model, Congo red staining; settings: for absorbance (Congo red, biofilm formation): 0.9 mM, 492 nm
Method: as §8, §9, §10, §1, §2, §5, §11, §12

[9] = tested on: P. aeruginosa strain PAR 50 biofilm; assay: Early biofilm model, Congo red staining; settings: for absorbance (Congo red, biofilm formation): early biofilm, 0.9 mM, 492 nm
Method: as §8, §9, §10, §1, §2, §5, §11, §12

[10] = tested on: P. aeruginosa strain PAR 50; assay: Number of viable bacteria in early and mature biofilm (viable count)
Method: as §11, §4
(§13) Numbers of viable bacteria contained in the early and mature biofilm were estimated on separate plates with wells filled with tested P. aeruginosa strains as described above (PAR 5, PAR 20, PAR 50).
(§14) At the same time intervals, biofilm content in each well was removed and mixed by multiple pippeting and transferred to sterile tubes. Then decimal dilutions of the bacterial suspension were made in TSB broth, plated on McConkey Agar (Oxoid), and incubated at 37° C. for 24 hours.
(§15) Numbers of colonies grown on platter were counted and total numbers of the viable bacteria calculated as colony forming units (CFU) per ml.
(§16) The results depict logs of CFU/ml for three P. aeruginosa strains: PAR 5, PAR 20 and PAR 50 measured at different time intervals (0 hours, 8 hours, 24 hours, 48 hours, 56 hours, 72 hours and 96 hours). The detection limit is 100 CFU/ml.

[11] = tested on: P. aeruginosa strain PAR 5; assay: as above
Method: as §11, §4, §13, §14, §15, §16

[12] = tested on: P. aeruginosa strain PAR 20; assay: as above
Method: as §11, §4, §13, §14, §15, §16

[13] = in comparison with culture control

CCC[C@H]1N[C@@H](CO)[C@H](O)[C@H]1O [Compound 4, β-1-C-propyl-1,4-dideoxy-1,4-imino-L-arabinitol]
influence on mature biofilm formation [1]: weak influence
absorbance (Congo red, biofilm development) ([1]; 48 hours): about 0.5 a.u.
absorbance (Congo red, biofilm development) ([1]; 56 hours): about 0.75 a.u.
absorbance (Congo red, biofilm development) ([1]; 72 hours): about 1.25 a.u.
absorbance (Congo red, biofilm development) ([1]; 96 hours): about 1.75 a.u.
influence on mature biofilm formation [2]: weak influence
absorbance (Congo red, biofilm development) ([2]; 48 hours): about 0.5 a.u.
absorbance (Congo red, biofilm development) ([2]; 56 hours): about 1.25 a.u.
absorbance (Congo red, biofilm development) ([2]; 72 hours): about 1.25 a.u.
absorbance (Congo red, biofilm development) ([2]; 96 hours): about 0.5 a.u.
influence on mature biofilm formation [3]: weak influence
absorbance (Congo red, biofilm development) ([3]; 48 hours): about 1.4 a.u.
absorbance (Congo red, biofilm development) ([3]; 56 hours): about 1.4 a.u.
absorbance (Congo red, biofilm development) ([3]; 72 hours): about 1.5 a.u.
absorbance (Congo red, biofilm development) ([3]; 96 hours): about 1.75 a.u.
reduction of biofilm growth ([4]; 8 hours of incubation): about 90%
reduction of biofilm growth ([4]; 24 hours of incubation): about 90%
reduction of biofilm growth ([4]; 48 hours of incubation): about 25%
reduction of biofilm growth ([4]; 72 hours of incubation): about 10%
effect on biofilm growth ([4]; notably an early biofilm): can reduce the biofilm growth
reduction of biofilm growth ([5]; 8 hours of incubation): about 60%
reduction of biofilm growth ([5]; 24 hours of incubation): about 35%
reduction of biofilm growth ([5]; 48 hours of incubation): about 45%
reduction of biofilm growth ([5]; 72 hours of incubation): about 0%
effect on biofilm growth ([5]; notably an early biofilm): can reduce the biofilm growth
reduction of biofilm growth ([6]; 8 hours of incubation): about 60%
reduction of biofilm growth ([6]; 24 hours of incubation): about 35%
reduction of biofilm growth ([6]; 48 hours of incubation): about 45%
reduction of biofilm growth ([6]; 72 hours of incubation): about 30%
effect on biofilm growth ([6]; notably an early biofilm): can reduce the biofilm growth
absorbance (Congo red, biofilm formation) ([7]; 8 hours): about 0.6 a.u.
absorbance (Congo red, biofilm formation) ([7]; 24 hours): about 1.0 a.u.
absorbance (Congo red, biofilm formation) ([7]; 48 hours): about 0.75 a.u.
effect on formation of an early biofilm [7, 13]: inhibit the formation of an early biofilm
biofilm formation at 8 hours, 24 hours and 48 hours ([8]; early biofilm): no biofilm formation
absorbance (Congo red, biofilm formation) ([8]; early biofilm, 8 hours): about 0.25 a.u.
absorbance (Congo red, biofilm formation) ([8]; early biofilm, 24 hours): about 0.25 a.u.
absorbance (Congo red, biofilm formation) ([8]; early biofilm, 48 hours): about 0.25 a.u.
effect on formation of an early biofilm [8, 13]: inhibit the formation of an early biofilm
absorbance (Congo red, biofilm formation) ([9]; 8 hours): about 0.8 a.u.
absorbance (Congo red, biofilm formation) ([9]; 24 hours): about 1.4 a.u.
absorbance (Congo red, biofilm formation) ([9]; 48 hours): about 0.9 a.u.
effect on formation of an early biofilm [9, 13]: inhibit the formation of an early biofilm
number of viable P. aeruginosa ([10]; early biofilm, 0 h): 1 × 10^7 CFU/ml
number of viable P. aeruginosa ([10]; early biofilm, 8 h): 2 × 10^8 CFU/ml
number of viable P. aeruginosa ([10]; early biofilm, 24 h): 7 × 10^8 CFU/ml
number of viable P. aeruginosa ([10]; early biofilm, 48 h): 1 × 10^8 CFU/ml
number of viable P. aeruginosa ([10]; mature biofilm, 56 h): 3 × 10^9 CFU/ml
number of viable P. aeruginosa ([10]; mature biofilm, 72 h): 9 × 10^9 CFU/ml
number of viable P. aeruginosa ([10]; mature biofilm, 96 h): 1 × 10^9 CFU/ml
number of viable P. aeruginosa ([11]; early biofilm, 0 h): 9 × 10^6 CFU/ml
number of viable P. aeruginosa ([11]; early biofilm, 8 h): 3 × 10^6 CFU/ml
number of viable P. aeruginosa ([11]; early biofilm, 24 h): 9 × 10^7 CFU/ml
number of viable P. aeruginosa ([11]; early biofilm, 48 h): 3 × 10^7 CFU/ml
number of viable P. aeruginosa ([11]; mature biofilm, 56 h): 4 × 10^8 CFU/ml
number of viable P. aeruginosa ([11]; mature biofilm, 72 h): 3 × 10^8 CFU/ml
number of viable P. aeruginosa ([11]; mature biofilm, 96 h): 2 × 10^9 CFU/ml
number of viable P. aeruginosa ([12]; early biofilm, 0 h): 5 × 10^6 CFU/ml
number of viable P. aeruginosa ([12]; early biofilm, 8 h): 2 × 10^7 CFU/ml
number of viable P. aeruginosa ([12]; early biofilm, 24 h): 4 × 10^8 CFU/ml
number of viable P. aeruginosa ([12]; early biofilm, 48 h): 3 × 10^9 CFU/ml
number of viable P. aeruginosa ([12]; mature biofilm, 56 h): 9 × 10^8 CFU/ml
number of viable P. aeruginosa ([12]; mature biofilm, 72 h): 8 × 10^7 CFU/ml
number of viable P. aeruginosa ([12]; mature biofilm, 96 h): 4 × 10^8 CFU/ml

From patent publication US10745395B2, “Compounds for their use as drugs for the treatment and/or the prevention of infection(s) caused by biofilm-forming bacteria” (CENTRE NATIONAL DE LA RECHERCHE SCIENTIFIQUE, priority 2014, dated 2020)
